Test results from ChEMBL document CHEMBL2413072, “Synthesis and in vitro anticancer studies of novel C-2 arylidene congeners of lantadenes” (2013).

Legend:
Format in all cases: functional
[1] = test system: A549; experiment: Growth inhibition of human A549/ATCC cells assessed as cell growth at 10^-4 M by sulforhodamine B assay; conditions: read-out: Activity
[2] = test system: MDA-MB-468; experiment: Growth inhibition of human MDA-MB-468 cells assessed as cell growth at 10^-6 M by sulforhodamine B assay; conditions: read-out: Activity
[3] = test system: NCI-H522; experiment: Growth inhibition of human NCI-H522 cells assessed as cell growth at 10^-4 M by sulforhodamine B assay; conditions: read-out: Activity
[4] = test system: SNB-19; experiment: Growth inhibition of human SNB19 cells assessed as cell growth at 10 uM by sulforhodamine B assay; conditions: read-out: Activity
[5] = test system: OVCAR-4; experiment: Growth inhibition of human OVCAR4 cells assessed as cell growth at 10 uM by sulforhodamine B assay; conditions: read-out: Activity
[6] = test system: RPMI-8226; experiment: Growth inhibition of human RPMI8226 cells by sulforhodamine B assay
[7] = test system: HT-29; experiment: Growth inhibition of human HT-29 cells assessed as growth inhibition at 10 uM by sulforhodamine B assay; conditions: read-out: GI
[8] = test system: NCI-H460; experiment: Growth inhibition of human NCI-H460 cells assessed as cell growth at 10^-6 M by sulforhodamine B assay; conditions: read-out: Activity
[9] = test system: 786-0; experiment: Growth inhibition of human 786-0 cells assessed as cell growth at 10 uM by sulforhodamine B assay; conditions: read-out: Activity
[10] = test system: K562; experiment: Growth inhibition of human K562 cells assessed as cell growth at 10^-4 M by sulforhodamine B assay; conditions: read-out: Activity
[11] = test system: MCF7; experiment: Growth inhibition of human MCF7 cells assessed as cell growth at 10^-7 M by sulforhodamine B assay; conditions: read-out: Activity
[12] = test system: NCI-H322M; experiment: Growth inhibition of human NCI-H322M cells assessed as cell growth at 10^-8 M by sulforhodamine B assay; conditions: read-out: Activity
[13] = test system: A498; experiment: Growth inhibition of human A498 cells by sulforhodamine B assay
[14] = test system: OVCAR-3; experiment: Growth inhibition of human OVCAR3 cells assessed as cell growth at 10 uM by sulforhodamine B assay; conditions: read-out: Activity
[15] = test system: OVCAR-8; experiment: Growth inhibition of human OVCAR8 cells assessed as growth inhibition at 10 uM by sulforhodamine B assay; conditions: read-out: GI
[16] = Growth inhibition of human EKVX cells assessed as growth inhibition at 10 uM by sulforhodamine B assay; conditions: read-out: GI
[17] = test system: SF-268; experiment: Growth inhibition of human SF268 cells assessed as cell growth at 10^-6 M by sulforhodamine B assay; conditions: read-out: Activity
[18] = test system: BT-549; experiment: Growth inhibition of human BT549 cells assessed as growth inhibition at 10 uM by sulforhodamine B assay; conditions: read-out: GI
[19] = test system: UO-31; experiment: Growth inhibition of human UO31 cells assessed as cell growth at 10^-6 M by sulforhodamine B assay; conditions: read-out: Activity
[20] = test system: KM12; experiment: Growth inhibition of human KM12 cells assessed as cell growth at 10 uM by sulforhodamine B assay; conditions: read-out: Activity
[21] = test system: PC-3; experiment: Growth inhibition of human PC3 cells assessed as growth inhibition at 10 uM by sulforhodamine B assay; conditions: read-out: GI
[22] = test system: SR; experiment: Growth inhibition of human SR cells assessed as cell growth at 10 uM by sulforhodamine B assay; conditions: read-out: Activity
[23] = test system: IGROV-1; experiment: Growth inhibition of human IGROV1 cells assessed as growth inhibition at 10 uM by sulforhodamine B assay; conditions: read-out: GI
[24] = test system: NCI-H226; experiment: Growth inhibition of human NCI-H226 cells assessed as growth inhibition at 10 uM by sulforhodamine B assay; conditions: read-out: GI
[25] = test system: OVCAR-8; experiment: Growth inhibition of human OVCAR8 cells assessed as cell growth at 10 uM by sulforhodamine B assay; conditions: read-out: Activity
[26] = test system: DU-145; experiment: Growth inhibition of human DU145 cells by sulforhodamine B assay
[27] = test system: K562; experiment: Growth inhibition of human K562 cells assessed as cell growth at 10^-7 M by sulforhodamine B assay; conditions: read-out: Activity
[28] = test system: K562; experiment: Growth inhibition of human K562 cells assessed as cell growth at 10^-8 M by sulforhodamine B assay; conditions: read-out: Activity
[29] = test system: K562; experiment: Growth inhibition of human K562 cells assessed as growth inhibition at 10 uM by sulforhodamine B assay; conditions: read-out: GI
[30] = test system: HT-29; experiment: Growth inhibition of human HT-29 cells assessed as cell growth at 10 uM by sulforhodamine B assay; conditions: read-out: Activity
[31] = test system: UACC-62; experiment: Growth inhibition of human UACC62 cells assessed as growth inhibition at 10 uM by sulforhodamine B assay; conditions: read-out: GI
[32] = test system: 786-0; experiment: Growth inhibition of human 786-0 cells assessed as cell growth at 10^-8 M by sulforhodamine B assay; conditions: read-out: Activity
[33] = test system: MDA-MB-468; experiment: Growth inhibition of human MDA-MB-468 cells assessed as cell growth at 10^-4 M by sulforhodamine B assay; conditions: read-out: Activity
[34] = test system: SNB-75; experiment: Growth inhibition of human SNB75 cells assessed as cell growth at 10^-4 M by sulforhodamine B assay; conditions: read-out: Activity
[35] = test system: HOP-92; experiment: Growth inhibition of human HOP92 cells assessed as growth inhibition at 10 uM by sulforhodamine B assay; conditions: read-out: GI
[36] = Growth inhibition of human HCC2998 cells assessed as growth inhibition at 10 uM by sulforhodamine B assay; conditions: HCC 2998, read-out: GI
[37] = test system: UACC-257; experiment: Growth inhibition of human UACC257 cells assessed as growth inhibition at 10 uM by sulforhodamine B assay; conditions: read-out: GI
[38] = test system: SF-539; experiment: Growth inhibition of human SF539 cells assessed as cell growth at 10^-6 M by sulforhodamine B assay; conditions: read-out: Activity
[39] = test system: NCI-H23; experiment: Growth inhibition of human NCI-H23 cells assessed as growth inhibition at 10 uM by sulforhodamine B assay; conditions: read-out: GI
[40] = test system: NCI-H23; experiment: Growth inhibition of human NCI-H23 cells assessed as cell growth at 10^-6 M by sulforhodamine B assay; conditions: read-out: Activity
[41] = test system: MCF7; experiment: Growth inhibition of human MCF7 cells assessed as growth inhibition at 10 uM by sulforhodamine B assay; conditions: read-out: GI
[42] = test system: NCI-H460; experiment: Growth inhibition of human NCI-H460 cells assessed as cell growth at 10^-7 M by sulforhodamine B assay; conditions: read-out: Activity
[43] = test system: T47D; experiment: Growth inhibition of human T47D cells assessed as cell growth at 10^-6 M by sulforhodamine B assay; conditions: read-out: Activity
[44] = test system: HOP-92; experiment: Growth inhibition of human HOP92 cells assessed as cell growth at 10^-6 M by sulforhodamine B assay; conditions: read-out: Activity
[45] = test system: SF-268; experiment: Growth inhibition of human SF268 cells assessed as cell growth at 10^-7 M by sulforhodamine B assay; conditions: read-out: Activity
[46] = test system: HOP-62; experiment: Growth inhibition of human HOP62 cells assessed as cell growth at 10^-4 M by sulforhodamine B assay; conditions: read-out: Activity
[47] = read-out: LC50 (the source's name)
[48] = read-out: pLC50 (the source's name) (converted)

C/C=C(/C)C(=O)O[C@@H]1CC(C)(C)C[C@H]2C3=CC[C@@H]4[C@@]5(C)CCC(=O)C(C)(C)[C@@H]5CC[C@@]4(C)[C@]3(C)CC[C@@]12C(=O)O [LANTADENE A]
growth at 100 µM [1]: 10%
growth at 1 µM [2]: 74%
growth at 100 µM [3]: -4%
growth at 10 µM [4]: 59.4%
growth at 10 µM [5]: 76.9%
GI50 ([6]; read-out: GI50): 2 µM
CC50 [6, 47]: > 100 µM
TGI ([6]; read-out: TGI): > 100 µM
GI50 ([6]; read-out: pGI50 (converted)): 2 µM
CC50 [6, 48]: > 100 µM
TGI ([6]; read-out: pTGI (converted)): > 100 µM
inhibition of growth at 10 µM [7]: 32.1%
growth at 1 µM [8]: 92%
growth at 10 µM [9]: 44.5%
growth at 100 µM [10]: 28%
growth at 0.1 µM [11]: 90%
growth at 0.01 µM [12]: 99%
GI50 ([13]; read-out: GI50): 2.06 µM
CC50 [13, 47]: > 100 µM
TGI ([13]; read-out: TGI): 11.6 µM
GI50 ([13]; read-out: pGI50 (converted)): 2.04 µM
CC50 [13, 48]: > 100 µM
TGI ([13]; read-out: pTGI (converted)): 11.7 µM
growth at 10 µM [14]: 62.6%
inhibition of growth at 10 µM [15]: 36.3%
inhibition of growth at 10 µM [16]: 50.7%
growth at 1 µM [17]: 98%
inhibition of growth at 10 µM [18]: 56%
growth at 1 µM [19]: 87%
growth at 10 µM [20]: 40%
inhibition of growth at 10 µM [21]: 62.8%
growth at 10 µM [22]: 69.5%
inhibition of growth at 10 µM [23]: 28.4%
inhibition of growth at 10 µM [24]: 18%
growth at 10 µM [25]: 63.7%
GI50 ([26]; read-out: GI50): 5.92 µM
CC50 [26, 47]: > 100 µM
TGI ([26]; read-out: TGI): > 100 µM
GI50 ([26]; read-out: pGI50 (converted)): 5.89 µM
CC50 [26, 48]: > 100 µM
TGI ([26]; read-out: pTGI (converted)): > 100 µM
growth at 0.1 µM [27]: 100%
growth at 0.01 µM [28]: 110%
inhibition of growth at 10 µM [29]: 55.9%
growth at 10 µM [30]: 67.9%
inhibition of growth at 10 µM [31]: 50.1%
growth at 0.01 µM [32]: 95%
growth at 100 µM [33]: 1%
growth at 100 µM [34]: 33%
inhibition of growth at 10 µM [35]: 56.3%
inhibition of growth at 10 µM [36]: 38.6%
inhibition of growth at 10 µM [37]: 30%
growth at 1 µM [38]: 106%
inhibition of growth at 10 µM [39]: 42%
growth at 1 µM [40]: 97%
inhibition of growth at 10 µM [41]: 45.3%
growth at 0.1 µM [42]: 98%
growth at 1 µM [43]: 93%
growth at 1 µM [44]: 56%
growth at 0.1 µM [45]: 101%
growth at 100 µM [46]: 26%
